Experiment: In vivo pharmacokinetics of 14C-radiolabelled compounds after IV dosing (plasma and urine radioactivity)
Set-up: species or system male Sprague Dawley rats
Conditions: rat
Method: All animal experimental protocols were approved by the Monash Institute of Pharmaceutical Sciences Animal Ethics Committee, Monash University, Parkville, VIC, Australia. Male Sprague Dawley rats (250–350 g) were used. Animals were maintained on a 12 h light/dark cycle at all times and after transport were acclimatized for 7 days at the facility prior to in vivo studies. […] Urine samples were collected at the 24 h timepoint, and a 50 μL of the sample was transferred to a vial, 4 mL of Ultima Gold added and counted using the scintillator. A blank urine sample prior to dosage was also collected and analyzed to account for background radiation. The pharmacokinetic parameters were determined using non-compartmental analysis with Excel software using the PK Solver add-in (NCA IV Bolus model). […] AUC0-t, elimination half-life (t1/2), volume of distribution at steady state (Vd ss), and clearance rate (Cl) were calculated with this approach. For the linear compound, the 1440 min timepoint was omitted from parameter fitting due to the very low radioactivity for this measurement. The ^14C-radiolabeled compounds were injected intravenously into male Sprague-Dawley rats at a nominal dose of radioactivity (1 μCi, varying 0.82–2.78 mg dose of the sample) and blood samples taken over the course of 24 h to monitor the plasma concentration time profiles.

Substance	Cl (clearance rate) [mL h^–1]
(PNAM50-co-NAS2.5)140 [BB]	0.342 ± 0.102
PNAM100-co-NAS5 [linear]	16.9 ± 0.91
